Paper PMC7767381, “Exploring the Anti-Cancer Mechanism of Novel 3,4′-Substituted Diaryl Guanidinium Derivatives” (Pharmaceuticals, 2020)
Several values for one entry are separate records, joined by “and”; a condition that tells them apart may be missing. Identical values can stand only once.

System: HL-60 cells
Assay: Annexin V-FITC/PI flow cytometry apoptosis assay in HL-60
Type: cell-based, human
Conditions: 48 h; for induction of apoptosis: annexin V-FITC/PI; for viability at 5 µM: HL-60, 5 μM
Protocol: We have previously reported that compound 1 induces 68.9 ± 0.1% apoptosis in HL-60 cells at a 10 μM concentration after 48 h. Accordingly, in order to evaluate the apoptotic effect of the most relevant derivatives (2, 3, and 4), HL-60 cells were treated with these compounds (at 5 µM, 5 µM, and 4 µM concentration, respectively) for 48 h, stained with annexin V-FITC/PI and analysed using flow cytometry (Figure 5).
Apoptosis was analysed using annexin V fluorescein isothiocyanate (FITC) and propidium iodide (PI). HL-60 cells were seeded at a density of 2 × 10^5 cells/mL in 12 well plates. Cells were then treated with either vehicle (0.5% ethanol), 2 (5 µM), 3 (5 µM), or 4 (4 µM) for 48 h. Following treatment, HL60 cells were collected and washed with annexin V binding buffer (5 mM HEPES, 70 mM NaCl, 1.25 mM CaCl2 pH 7.4) and stained with annexin V-FITC (iQ Corporation, Groningen, The Netherlands) for 20 min. Following washing with annexin V binding buffer, cells were resuspended in PI (0.5 µg/mL) in binding buffer and analysed on BD FACS Canto II flow cytometer (BD Sciences) using FloJo software (Ashland, OR, USA).
Figure 5 Annexin V-FITC vs. PI flow cytometry analysis of HL-60 cancer cells treated with compounds 3 (5 μM), 2 (5 μM) and 4 (4 μM) for 48 h. These figures are representative of three independent experiments. The viable cells, early apoptotic, necrotic and late apoptotic cells are represented by the lower left, lower right, upper left and upper right quadrants, respectively. TEXT PRINTED IN THE PICTURE: 3: 2.45; 32.6; 27.1; 37.8 | 2: 0.56; 11.3; 78.1; 9.96 | 4: 1.09; 40.2; 12.4; 46.2 DOUBTS OF THE COPYIST ABOUT THIS PICTURE: All quadrant numbers are in very small print with no measure or unit; they are listed in the order upper left, upper right, lower left, lower right / 3, upper right quadrant: 32.6, partly covered by data points, 3/8 and 6/8 uncertain / 3, lower right quadrant: 37.8, partly covered by data points, 37.8 or 37.6 / 3, lower left quadrant: 27.1, small print / 2, lower left quadrant: 78.1 or 76.1 / 2, lower right quadrant: 9.96 or 9.95 or 9.98 / 4, upper right quadrant: 40.2, partly covered by data points / 4, lower right quadrant: 46.2 or 48.2, partly covered by data points / The Control and Vehicle plots also print quadrant numbers (Control: 0.16, 1.41, 97.7, 0.77; Vehicle: 0.088, 1.65, 97.3, 0.94); they are not listed because they are not test substances […]
Apoptosis was analysed using annexin V fluorescein isothiocyanate (FITC) and propidium iodide (PI). HL-60 cells were seeded at a density of 2x10^5 cells/mL in 12 well plates. Cells were then treated with either vehicle (0.5% ethanol), 2 (5 µM), 3 (5 µM) or 4 (4 µM) for 48 hours.
Following treatment, HL60 cells were collected and washed with annexin V binding buffer (5 mM HEPES, 70 mM NaCl, 1.25 mM CaCl2 pH 7.4) and stained with annexin V -FITC (iQ Corporation, Groningen, The Netherlands) for 20 minutes. Following washing with annexin V binding buffer, cells were resuspended in PI (0.5 µg/mL) in binding buffer and analysed on BD FACS Canto II flow cytometer (BD Sciences) using FloJo software (Ashlan d, Oregon, United […]
Figure S13. Compounds 3 and 4 promote strong apoptosis when inhibiting HL-60 cell viability.
For flow cytometry, HL60 cells were seeded at a density of 2x10^5 cells/mL in 12 well plates.
Cells were then treated with either vehicle (0.5% ethanol), 2 (5 µM), 3 (5 µM) or 4 (4 µM) for 48 hours. After 48 hours, cells were collected and stained with annexin V – FITC and propidium iodide. Samples were analysed by flow cytometry using the BD FACs Canto II cytometer.
Columns and bars represent the mean ± S.D. of 3 independent experiments. Statistical analysis was performed using one-way ANOVA with Dunnett’s multiple comparisons test comparing vehicle to drug treated samples. *p<0.05 and ***p<0.001.
(1 picture or pasted object on this page, not shown here)

[1] = Homo sapiens, representative plot, read-out: viable cells (lower left quadrant)

Structure (SMILES) | induction of apoptosis (HL-60, 5 µM) | viability at 5 µM [1] | induction of apoptosis (HL-60, 4 µM) | viability at 4 µM (Homo sapiens, HL-60, 4 μM, representative plot, read-out: viable cells (lower left quadrant))
Cl.Cl.N=C(N)Nc1ccc(Oc2cccc(NC(=N)Nc3ccc(Cl)c(C(F)(F)F)c3)c2)cn1 [Compound 2, 1-(4-Chloro-3-(trifluoromethyl)phenyl)-3-(3-((6-guanidinopyridin-3-yl)oxy)phenyl) guanidine dihydrochloride] | 30.7 ± 11.6% and ~30% | 78.1% | – | –
Cl.N=C(N)Nc1ccc(Oc2cccc(Nc3ccc(Cl)c(C(F)(F)F)c3)c2)cc1 [Compound 3, 1-(4-(3-((4-Chloro-3-(trifluoromethyl)phenyl)amino)phenoxy)phenyl)guanidine hydrochloride] | 82.5 ± 11.3% and 82% | 27.1% | – | –
Cl.N=C(N)Nc1ccc(Oc2cccc(Nc3ccc(Cl)c(C(F)(F)F)c3)c2)cn1 [Compound 4, 1-(5-(3-((4-Chloro-3-(trifluoromethyl)phenyl)amino)phenoxy)pyridin-2-yl)guanidine hydrochloride] | – | – | 92.7 ± 5.5% and 92% | 12.4%
